Literature values in US20120021445A1, “Pluripotent Stem Cells for Drug Induced Myopathy and Malignant Hyperthermia” (priority 2010, published 2012).

How the values were obtained:
[1] = rhabdomyolysis defined as acute elevation of CK (>15 000 ULN); unit not given

For `CC(C)c1c(C(=O)Nc2ccccc2)c(-c2ccccc2)c(-c2ccc(F)cc2)n1CC[C@@H](O)C[C@@H](O)CC(=O)O` [atrovarstatin], the “reported incidence of rhabdomyolysis” value [1] is listed as 0.04.
For `O=C1CN(/N=C/c2ccc(-c3ccc([N+](=O)[O-])cc3)o2)C(O)=N1` [dantrolene], the “lack of efficacy in malignant hyperthermia patients” value is given as “up to 5%”.
In the case of `CC[C@H](C)C(=O)O[C@H]1C[C@@H](C)C=C2C=C[C@H](C)[C@H](CC[C@@H]3C[C@@H](O)CC(=O)O3)[C@H]21` [lovostatin], the “reported incidence of rhabdomyolysis” value [1] is given as 0.19.
For `CC[C@H](C)C(=O)O[C@H]1C[C@H](O)C=C2C=C[C@H](C)[C@H](CC[C@@H](O)C[C@@H](O)CC(=O)O)[C@H]21` [pravastatin], the “reported incidence of rhabdomyolysis” value [1] is listed as 0.04.
